From patent US10800790B2, “Sesquiterpenoid STAT3 inhibitors” (University of Hawaii, priority 2013, dated 2020)

Columns and labels:
[1] = tested on: U251MG glioblastoma cells; assay: CyQuant cell viability/proliferation assay, U251MG; format: cell-based, human; parameters: key to Activity against U251: +, active; −, no activity; +/−, poorly active; details: for Activity against U251: Table 1 grade, Table 1/FIG. 2 compound numbering; for Inhibitory potency compared with 22 (CyQuant): 72-h treatment, FIG. 10, synthetic derivatives of 22
Procedure: The cell viability assay was performed as previously reported (Zhang X, et al. (2010)). Briefly, a 10 millimolar concentration stock solution in dimethylsulfoxide (DMSO) of the tested molecule was first prepared. Next, the stock solution was diluted down to various working solutions in water. Thus, a formulation of the tested compound in a DMSO/water mixture was used to test for cell viability. (A novel small-molecule disrupts STAT3 SH2 domainphosphotyrosine interactions and STAT3-dependent tumor processes, Biochem Pharmacol 79:1398-1409; Zhao W, Jaganathan S, & Turkson J (2010), A cell-permeable STAT3 SH2 domain mimetic inhibits STAT3 activation and induces antitumor cell effects in vitro. J Biol Chem. 285:35855-35865). Cells (U251MG, MDA-MB-231 or NIH3T3) were obtained from ATCC (Manassas, Va.) and were cultured in 96-well plates at 2,000 cells per well for 24 h and were treated with compounds (5 micromolar concentration) for 72 h. Cell viabilty was determined using CyQuant assay, according to the manufacturer's (Invitrogen, CA, USA) instructions. Relative viability of the treated cells was normalized to the DMSO-treated control cells.

[2] = tested on: pY705STAT3 in U251MG or MDA-MB-231 cells; assay: Immunoblotting of pY705STAT3 in treated tumor cells; details: 5 micromolar, 0-24 h; U251MG or MDA-MB-231; Table 1/FIG. 2 numbering
Procedure: Positions of STATs:DNA complexes or proteins in gel are labeled; control lanes (0) represent nuclear extracts or whole-cell lysates prepared from 0.05% DMSO-treated cells. Data are representative of at least three to four independent determinations.
Lysates of equal total protein prepared in the lysis buffer (50 mM Hepes, pH 7.5, 150 mM NaCl, 2 mM EDTA, 1% Triton X-100, 0.1% SDS), were subjected to IP or Western blotting analysis. Antibodies against STAT3, pY705STAT3, Src, pY416Src, Erk1/2, and pT202/Y204Erk1/2 and GAPDH (Cell Signaling Technology, Danvers, Mass.), and anti-β-actin, and HSP105 (Santa Cruz Biotechnology, Dallas, Tex.) are from the designated sources.
Whole-cell lysates were prepared in boiling SDS sample loading buffer to extract total proteins, as reported previously. […] Nitrocellulose membranes were probed with primary antibodies, and the detection of horseradish peroxidase-conjugated secondary antibodies by enhanced chemiluminescence (Amersham) was performed. Antibodies used were monoclonal anti-pYSTAT3 and anti-STAT3 antibodies (Cell Signaling Technology, Danvers, Mass.).

Row | SMILES | Activity against U251 [1] | Effect on pY705STAT3 / STAT3 activity (immunoblot), in words [2] | Inhibitory potency compared with 22 (CyQuant) [1]
1 | CC=C(C)C(=O)OC1CC(C)C2(OC)CCC(C)(C=C3OC(=O)C(CO)=C31)O2 (centres unmarked) [Compound 17] | − |  | 
2 | CC(=CCO)C(=O)OC1CC(C)C2(O)CCC(C)(C=C3OC(=O)C(CO)=C31)O2 (centres unmarked) [Compound 21] | − |  | 
3 | CCC(C)C(=O)OCC1=C2/C(=C\C3(C)CCC(O)(O3)[C@H](C)C[C@@H]2O)OC1=O (stereo partly drawn) [zmm-1-18, ((4S,6R,E)-4,7-dihydroxy-6,10-dimethyl-2-oxo-2,4,5,6,7,8,9,10-octahydro-7,10-epoxycyclodeca[b]furan-3-yl)methyl 2-methylbutanoate] |  | showed little effects on pY705STAT3 | 
4 | C[C@@H]1C[C@H](O)C2=C(COC(=O)C=Cc3ccccc3)C(=O)O/C2=C/C2(C)CCC1(O)O2 (stereo partly drawn) [zmm-1-19, ((4S,6R,E)-4,7-dihydroxy-6,10-dimethyl-2-oxo-2,4,5,6,7,8,9,10-octahydro-7,10-epoxycyclodeca[b]furan-3-yl)methyl cinnamate] |  | inhibited pY705STAT3 | retained the inhibitory potency as 22
5 | CC(C)=CCCC(C)=CC(=O)OCC1=C2/C(=C\C3(C)CCC(O)(O3)[C@H](C)C[C@@H]2O)OC1=O (stereo partly drawn) [zmm-1-20, ((4S,6R,E)-4,7-dihydroxy-6,10-dimethyl-2-oxo-2,4,5,6,7,8,9,10-octahydro-7,10-epoxycyclodeca[b]furan-3-yl)methyl 3,7-dimethylocta-2,6-dienoate] |  | inhibited pY705STAT3 | retained the inhibitory potency as 22
6 | CC(C)=CC(=O)OCC1=C2/C(=C\C3(C)CCC(O)(O3)[C@H](C)C[C@@H]2O)OC1=O (stereo partly drawn) [zmm-1-21, ((4S,6R,E)-4,7-dihydroxy-6,10-dimethyl-2-oxo-2,4,5,6,7,8,9,10-octahydro-7,10-epoxycyclodeca[b]furan-3-yl)methyl 3-methyl but-2-enoate] |  | showed little effects on pY705STAT3 | 
7 | CC(C)=CCCC(C)CC(=O)OCC1=C2/C(=C\C3(C)CCC(O)(O3)[C@H](C)C[C@@H]2O)OC1=O (stereo partly drawn) [zmm-1-22, ((4S,6R,E)-4,7-dihydroxy-6,10-dimethyl-2-oxo-2,4,5,6,7,8,9,10-octahydro-7,10-epoxycyclodeca[b]furan-3-yl)methyl 3,7-dimethyloct-6-enoate] |  | inhibited pY705STAT3 | retained the inhibitory potency as 22
8 | C/C=C(\C)C(=O)O[C@H]1C[C@@H](C)C2(OC)CCC(C)(/C=C3/OC(=O)C(COC(=O)C=Cc4ccccc4)=C31)O2 (stereo partly drawn) [zmm-1-72, (4S,6R,E)-3-((cinnamoyloxy)methyl)-7-methoxy-6,10-dimethyl-2-oxo-2,4,5,6,7,8,9,10-octahydro-7,10-epoxycyclodeca[b]furan-4-yl(E)-2-methylbut-2-enoate] |  |  | retained the inhibitory potency as 22
9 | C[C@@H]1C[C@H](O)C2=C(COC(=O)/C=C/c3ccc(C(F)(F)F)cc3)C(=O)O/C2=C/C2(C)CCC1(O)O2 (some centres unmarked) [zmm-1-79] |  |  | retained the inhibitory potency as 22
10 | CCCC(CCC)C(=O)OCC1=C2/C(=C\C3(C)CCC(O)(O3)[C@H](C)C[C@@H]2O)OC1=O (some centres unmarked) [zmm-1-80] |  |  | retained the inhibitory potency as 22
11 | C[C@@H]1C[C@H](O)C2=C(COC(=O)CCc3ccccc3)C(=O)O/C2=C/C2(C)CCC1(O)O2 (stereo partly drawn) [zmm-1-82, ((4S,6R,E)-4,7-dihydroxy-6,10-dimethyl-2-oxo-2,4,5,6,7,8,9,10-octahydro-7,10-epoxycyclodeca[b]furan-3-yl)methyl 3-phenylpropanoate] |  |  | retained the inhibitory potency as 22
